Measurements reported in patent publication US7977320B2, “Method of increasing efficacy of tumor cell killing using combinations of anti-neoplastic agents” (The Regents of the University of California, priority 2004, dated 2011).

Key:
Assay type in all cases: cell-based
primary AML cells [1] = experiment: proliferative response of primary AML samples to GO; conditions: for responsive samples: FIG. 3A
Experimental: More specifically, for Panel A, colony formation assays were performed as follows: HL-60 cells were treated and cultured in 0.3% agarose in triplicate for each condition in the presence of 0.01 ug/ml of antibodies. After 14 days of culture, the number of colonies was enumerated in each dish. The basal level of colony formation (>400 per dish) was considered as 100% and the percentage of stimulation was calculated for each condition. Error bars in the figure indicate the SEM. Each graph is representative of at least 3 independent experiments. For Panel B, primary leukemia cells were cultured for 48 hours in the presence of 0.01 ug/ml of anti-CD33 mAb or control mouse IgG. Each bar in the figure summarizes (median) the proliferative response of that group. The basal level of untreated cell proliferation (CPM>5500 CPM) was considered as 0%. Inhibition was calculated as the percent change for that condition. Error bars indicate the SEM.
With the knowledge of the effect of a naked anti-CD33 antibody on Syk activation and cell proliferation or death, we investigated the effect of an immunotoxin (GO; Mylotarg® (Wyeth)) on these characteristics. GO was selected based on its approval status by the FDA. Proliferation assays were performed as described above. Various concentration of GO were added at the initiation of 48 hour culture. The basal levels of cell proliferation (untreated cells) were >10000 cpm and were considered as 100%. The percentage of change was calculated for each condition for each sample. Error bars indicate the SEM.

HL-60 cells = experiment: proliferation assay of HL-60 cells transfected with Syk si-RNA or control RNA; conditions: Syk si-RNA-transfected HL-60 cells versus control RNA treated or untreated cells, FIG. 4B
Experimental: To test whether there is a correlation between response of AML cells to CD33 ligation and/or GO treatment and the level of their Syk expression, “blocking” experiments were performed. In order to block Syk expression, we used Syk-si-RNA transfection. More specifically, for the results presented in FIGS. 4A and 4B, HL-60 cells were transfected with Syk si-RNA or control RNA and grown in cell culture under normal conditions for these cells. 72 hours post-transfection, cells were cultured in the presence of optimal ([…]) concentration of mAb, as disclosed above (FIG. 4A) or the indicated concentrations of Mylotarg® (Wyeth) (FIG. 4B). Proliferation assays were performed as described above. The basal level of proliferation was >10000 CPM (considered as 100%). Each point represents the percent change for that condition. Error bars indicate the SEM. Bars compared and marked with asterisk have a statistically significant difference. For FIG. 4C, HL-60 cells were transfected with Syk si-RNA or control RNA. After 72 hours of culture under typical culture conditions, cell lysates were prepared and used to generate immune precipitates with the appropriate mAb.

primary AML cells [2] = experiment: proliferation assay of primary AML samples after 5-azacytidine treatment; conditions: for inhibition of proliferation: Syk+ cells, FIG. 7A
Experimental: (§1) To evaluate the effect of certain chemotherapeutic agents on signal transduction through Syk and/or SHP-1, experiments were performed on primary AML samples. Primary leukemia cells were treated with 5-azacytidine for 4 days under otherwise normal cell culture growth conditions. The cells were then washed twice, and a proliferation assay was performed as described above. The basal level of proliferation (untreated cells) was considered as 100% and the percent change was calculated for each condition. Error bars indicate the SEM.

Syk = Syk expression in primary AML samples after 5-azacytidine treatment
Experimental: Based on these observations, we tested a panel of 25 primary AML samples for Syk expression using standard Western blotting and an anti-Syk or anti-ZAP-70 mouse monoclonal antibody from Santa Cruz Biochem.
as §1
Syk is not only an important protein kinase, but also a tumor suppressor. In many cancer cells, Syk is silenced by hypemethylation of the DNA encoding it. This hypermethylation can lead to absence of Syk expression and, as a result, to unresponsiveness of tumor cells to various treatments. To block possible hyper-methylation and restore Syk expression in Syk-negative primary AML samples, we used 5-azacytidine. Other hypomethylating agents could work as well. The results of the experiments are depicted in FIG. 7, Panels A-D.

SHP-1 = SHP-1 expression in primary AML samples after 5-azacytidine treatment; conditions: 2 of 5 SHP-1-negative primary AML samples

Molecule	responsive samples (primary AML cells [1]; Syk-negative primary AML samples)	responsive samples (primary AML cells [1]; Syk-positive primary AML samples)	level of inhibition of proliferation (primary AML cells [1]; Syk-positive samples versus Syk-negative samples, p<0.003)	proliferative response (primary AML cells [1]; both Syk-positive and Syk-negative samples, 48 hour culture, FIG. 3B)	response of proliferation to treatment (HL-60 cells)	level of inhibition of proliferation (primary AML cells [2]; 5-aza alone, Syk-positive or SHP-positive samples versus negative samples)	inhibition of proliferation (primary AML cells [2]; 5-azacytidine 4 days combined with GO)	inhibition of proliferation (primary AML cells [2]; 5-azacytidine 4 days combined with naked anti-CD33 antibody)	effect of anti-CD33 antibodies on proliferation (primary AML cells [2]; Syk- cells (non-responders) treated with the hypomethylating agent, FIG. 7B)	level of inhibition of proliferation (primary AML cells [2]; Syk-negative or SHP-1-negative samples, 5-aza combined with Mylotarg)	level of inhibition of proliferation (primary AML cells [2]; Syk-negative or SHP-1-negative samples, 5-aza combined with anti-CD33 mAb)	samples with restored Syk expression (Syk; 5 of 15 Syk-negative primary AML samples)	level of Syk expression (Syk; Syk-positive samples (data not shown))	samples with restored SHP-1 (SHP-1)
gemtuzumab ozogamicin [GO]	17%	83%	higher than in Syk-negative samples	dose-dependent inhibition	significantly lower response									
Nc1ncn([C@@H]2O[C@H](CO)[C@@H](O)[C@H]2O)c(=O)n1 [5-azacytidine, 5-Azacytidine]						significantly higher	increased inhibition of proliferation	increased inhibition of proliferation	substantially increased	comparable to positive samples	comparable to positive samples	33%	un-changed	40%
